Measurements published in patent US12638451B2, “Genetic amplified tumor homing nanoparticles and compositions and methods thereof” (priority 2019, dated 2026).

Tested on: xenograft models of prostate cancer
Experiment: In vivo antitumor efficacy
Parameters: species or system mice
Details: Dox 22 μg/mL or Tf-Dox containing 5 μg/mL Dox i.v.; Ad.DD3 intratumoral 7 days before; 14 days observation
Excerpt: To study the in vivo enhancement effect of the genetic probes on the antitumor efficacy of Tf-Dox, we first established xenograft models of prostate cancer by subcutaneous injection of LNCap tumor cells (about 1×10^6) in Matrigel (BD Biosciences; 1/1) into the left shoulder of BALB/c male mice. […] During 14 days of observation, we monitored the tumor volumes according to the following formula: V=a×b^2/2 where a and b were the longest and shortest diameters of the tumor, respectively, measured using a Vernier caliper. […] The reduced injection dose, in turn, is promising to lower down the distribution and biotoxicity of drugs towards the normal tissues. […] Thus, the optimized therapy outcome of the gene-nanoparticle synergetic strategy is resulted from the enhanced tumor homing ability of the nanoparticles leading to higher DOX accumulation in the tumor cells rather than the antitumor effect of the gene probes.
Xenograft models of prostate cancer were established by subcutaneous injection of LNCap tumor cells (about 1×10^6) in Matrigel (BD Biosciences; 1/1) into the left shoulder of BALB/c male mice. […] Changes in tumor volume and body weight were monitored at several scheduled time-points. The volume of the tumor was calculated according to the following formula: V=a×b^2/2 where a and b were the longest and shortest diameters of tumor, respectively, measured using a Vernier calliper. […]

Tf-Dox
Tumor volume / tumor inhibition: an increase of tumor volume was visualized
